Values of other authors, collected in US20240398797A1, “COMBINATION THERAPIES FOR METASTATIC CASTRATION-RESISTANT PROSTATE CANCER” (Janssen Pharmaceutica NV, priority 2021, published 2024).

Assays:
[1] = tested on: non-castrate hormone-sensitive and bicalutamide-resistant human prostate cancer xenograft models
T877A AR mutant = molecular target: T1, T877A AR mutant (Homo sapiens, UniProt P10275, T878A)
T1 sequence (P10275 1-920 T878A): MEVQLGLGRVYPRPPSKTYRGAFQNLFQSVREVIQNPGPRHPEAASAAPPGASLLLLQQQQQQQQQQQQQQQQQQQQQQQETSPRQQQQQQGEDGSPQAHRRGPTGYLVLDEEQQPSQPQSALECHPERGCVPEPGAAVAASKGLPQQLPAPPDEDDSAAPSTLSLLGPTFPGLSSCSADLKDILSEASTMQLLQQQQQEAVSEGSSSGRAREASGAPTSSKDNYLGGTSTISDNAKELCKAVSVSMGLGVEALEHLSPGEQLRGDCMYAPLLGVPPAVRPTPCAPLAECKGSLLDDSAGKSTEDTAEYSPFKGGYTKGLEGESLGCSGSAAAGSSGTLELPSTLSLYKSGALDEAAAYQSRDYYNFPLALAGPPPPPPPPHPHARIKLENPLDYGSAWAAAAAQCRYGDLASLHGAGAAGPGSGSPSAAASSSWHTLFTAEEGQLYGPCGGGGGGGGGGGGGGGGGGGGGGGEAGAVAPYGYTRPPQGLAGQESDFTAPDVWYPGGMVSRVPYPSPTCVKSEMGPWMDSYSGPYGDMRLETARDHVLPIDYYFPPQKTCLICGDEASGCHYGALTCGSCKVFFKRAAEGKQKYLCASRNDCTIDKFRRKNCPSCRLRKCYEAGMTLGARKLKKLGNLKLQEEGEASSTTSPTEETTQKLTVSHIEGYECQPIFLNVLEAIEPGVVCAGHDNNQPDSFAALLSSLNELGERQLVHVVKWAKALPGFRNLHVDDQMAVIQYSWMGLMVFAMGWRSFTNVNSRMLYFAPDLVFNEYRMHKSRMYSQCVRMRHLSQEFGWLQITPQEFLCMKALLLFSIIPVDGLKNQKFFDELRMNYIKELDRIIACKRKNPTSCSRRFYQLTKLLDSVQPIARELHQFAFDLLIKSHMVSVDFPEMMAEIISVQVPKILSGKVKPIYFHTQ

Row | activity at AR mutant (T877A AR mutant) | SMILES | tumor regression [1]
1 |  | CNC(=O)c1ccc(N2C(=S)N(c3cnc(C#N)c(C(F)(F)F)c3)C(=O)C23CCC3)cc1F [Apalutamide, 4-[7-(6-cyano-5-trifluoromethylpyridin-3-yl)-8-oxo-6-thioxo-5,7-diazaspiro [3.4]oct-5-yl]-2-fluoro-N-methylbenzamide] | partial or complete tumor regression
2 | act as AR agonists | CC(C)(O)C(=O)Nc1ccc([N+](=O)[O-])c(C(F)(F)F)c1 [hydroxyflutamide] | 
